One assay concerns HIV-1 fusion. Put plainly: gp160 induced cell-cell fusion assay (HeLa P4 / CHO-Tat10 cells, β-galactosidase reporter). The class given is cell-based. Particulars: Human immunodeficiency virus 1, HeLaP4, read-out: IC50 against HIV-1 fusion. The procedure: The gp160 induced cell-cell fusion assay uses a HeLa P4 cell line and a CHO-Tat10 cell line.
The HeLa P4 cell line expresses CCR5 and CD4 and has been transfected with HIV-1 LTR-β-Galactosidase. The media for this cell line is Dulbecco modified eagle's medium (D-MEM) (without L-glutamine) containing 10% foetal calf serum (FCS), 2 mM L-glutamine penicillin/streptomycin (Pen/Strep; 100 U/mL penicillin+[…] streptomycin), and 1 μg/ml puromycin.
The CHO cell line is a Tat (transcriptional trans activator)-expressing clone from a CHO JRR17.1 cell line that has been transfected with pTat puro plasmid. The media for this cell line is rich medium for mammalian cell culture originally developed at Roswell Park Memorial Institute RPMI1640 (without L-glutamine) containing 10% FCS, 2 mM L-glutamine, 0.5 mg/ml Hygromycin B and 12 μg/ml puromycin. The CHO JRR17.1 line expresses gp160 (JRFL) and is a clone that has been selected for its ability to fuse with a CCR5/CD4 expressing cell line.
Upon cell fusion, Tat present in the CHO cell is able to transactivate the HIV-1 long terminal repeat (LTR) present in the HeLa cell leading to the expression of the β-Galactosidase enzyme. This expression is then measured using a Fluor Ace™ β-Galactosidase reporter assay kit (Bio-Rad cat no. 170-3150). This kit is a quantitative fluorescent assay that determines the level of expression of β-galactosidase using 4-methylumbelliferul-galactopyranoside (MUG) as substrate. β-Galactosidase hydrolyses the fluorogenic substrate resulting in release of the fluorescent molecule 4-methylumbelliferone (4MU). Fluorescence of 4-methylumbelliferone is then measured on a fluorometer using an excitation wavelength of 360 nm and emission wavelength of 460 nm.
Compounds that inhibit fusion will give rise to a reduced signal and, following solubilisation in an appropriate solvent and dilution in culture medium, a dose-response curve for each compound can be used to calculate IC50 values.
The IC50 is the concentration needed to halve the response being measured. With `Cc1n[nH]c2cccc(O[C@@H](C)C(=O)N3CCN(C(=O)c4ccccc4)C[C@H]3C)c12` [Example 12], the IC50 came to 15 nM.

With `CC(Oc1cccc2ccccc12)C(=O)N1CCN(C(=O)c2ccccc2)C[C@H]1C` (stereo partly drawn) [Example 29], the IC50 was determined as 134 nM. With `CC(Oc1ccccc1C(N)=O)C(=O)N1CCN(C(=O)c2ccccc2)C[C@H]1C` (stereo partly drawn) [Example 44], the 50% inhibitory concentration (IC50) worked out at 825 nM.

For another assay, the target named is interaction of gp120 with CD4 (Human immunodeficiency virus type 1 group M subtype B, UniProt P04578). The assay is described as follows: gp120/soluble CD4 enzyme linked immunosorbent assay (ELISA). Format: binding. Particulars: soluble CD4 conjugated to horseradish peroxidase, absorbance at 492 nm, read-out: IC50, inhibition of interaction of gp120 with soluble CD4. The procedure:
Maxisorp plates (Nunc) are coated with 2 μg/well of anti-gp120 antibody (D7324). 100 μl of gp120 (dilution pre-determined by titration) is added to each well and incubated for 90 minutes at room temperature. The sample is removed and the wells are washed with PBS (phosphate buffered saline)+0.01% TWEEN® (polyethylene glycol sorbitan monolaurate). 50 μl/well of compound is added followed by 50 μl (0.1 μg) of soluble CD4 conjugated to horseradish peroxidase (Autogen Bioclear). The plate is incubated for 90 minutes at room temperature before the wells are washed again. The substrate OPD (o-phenylenediamine, Sigma) is added at a concentration of 0.5 mg/ml and the plate incubated in the dark at room temperature for 3 minutes before 3M HCl is added to stop the reaction. Compounds that inhibit the interaction of gp120 with soluble CD4 will give rise to a reduced absorbance at 492 nm.
With `C[C@H](Oc1cccc2ncccc12)C(=O)N1CCN(C(=O)c2ccccc2)C[C@H]1C` [Example 1, (2S)-1-[(2R)-4-Benzoyl-2-methyl-piperazin-1-yl]-2-(quinolin-5-yloxy)-prooan-1-one], the concentration for half-maximal inhibition (IC50) is 920 nM. On to `CNC(=O)c1ccc(O[C@@H](C)C(=O)N2CCN(C(=O)c3ccccc3)C[C@H]2C)c(OC)c1` [Example 11], for which the 50% inhibitory concentration (IC50) was 1000 nM.

In the case of `Cc1n[nH]c2cccc(O[C@@H](C)C(=O)N3CCN(C(=O)c4ccccc4)C[C@H]3C)c12` [Example 12], the half-maximal inhibitory concentration (IC50) came to 750 nM.

The values above are taken from patent US20050043300A1, “Piperazine derivatives” (priority 2003, published 2005).
